# Results taken from ChEMBL document CHEMBL1201862, “PubChem BioAssay data set” (2004).
# Calls of active or inactive are those of the source.
# Assays:
# [1] = molecular target: Cystic fibrosis transmembrane conductance regulator/Golgi-associated PDZ and coiled-coil motif-containing protein (Homo sapiens, UniProt P13569+Q9HD26); assay: potency against CAL PDZ-peptide interaction – biochemical, fluorescence polarization, Cerulean-tagged CAL PDZ, cherry-picks, dose response (AID 504773)
# Cytochrome P450 2C9 [2] = molecular target: T1, Cytochrome P450 2C9 (Homo sapiens, UniProt P11712)
# T1 sequence (P11712 whole entry): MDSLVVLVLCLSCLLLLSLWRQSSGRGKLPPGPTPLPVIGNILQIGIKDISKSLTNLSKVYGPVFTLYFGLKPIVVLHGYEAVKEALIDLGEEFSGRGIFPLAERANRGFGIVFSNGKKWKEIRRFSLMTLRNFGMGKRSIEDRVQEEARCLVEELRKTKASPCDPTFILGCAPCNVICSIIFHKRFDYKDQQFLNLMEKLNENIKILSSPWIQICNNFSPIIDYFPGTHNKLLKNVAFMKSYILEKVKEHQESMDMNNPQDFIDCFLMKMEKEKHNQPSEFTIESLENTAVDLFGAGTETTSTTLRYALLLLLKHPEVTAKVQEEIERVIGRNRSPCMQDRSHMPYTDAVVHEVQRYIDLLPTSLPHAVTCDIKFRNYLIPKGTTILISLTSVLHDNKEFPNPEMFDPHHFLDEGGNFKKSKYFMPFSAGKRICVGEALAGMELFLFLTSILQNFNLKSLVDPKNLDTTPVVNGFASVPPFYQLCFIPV
# Cytochrome P450 2C9 [3] = molecular target: T1, Cytochrome P450 2C9; conditions: Potency
# Cytochrome P450 1A2 = molecular target: T2, Cytochrome P450 1A2 (Homo sapiens, UniProt P05177);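 note: PubChem cytochrome P450 panel assay, CYP1A2 panel member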
# T2 sequence (P05177 whole entry): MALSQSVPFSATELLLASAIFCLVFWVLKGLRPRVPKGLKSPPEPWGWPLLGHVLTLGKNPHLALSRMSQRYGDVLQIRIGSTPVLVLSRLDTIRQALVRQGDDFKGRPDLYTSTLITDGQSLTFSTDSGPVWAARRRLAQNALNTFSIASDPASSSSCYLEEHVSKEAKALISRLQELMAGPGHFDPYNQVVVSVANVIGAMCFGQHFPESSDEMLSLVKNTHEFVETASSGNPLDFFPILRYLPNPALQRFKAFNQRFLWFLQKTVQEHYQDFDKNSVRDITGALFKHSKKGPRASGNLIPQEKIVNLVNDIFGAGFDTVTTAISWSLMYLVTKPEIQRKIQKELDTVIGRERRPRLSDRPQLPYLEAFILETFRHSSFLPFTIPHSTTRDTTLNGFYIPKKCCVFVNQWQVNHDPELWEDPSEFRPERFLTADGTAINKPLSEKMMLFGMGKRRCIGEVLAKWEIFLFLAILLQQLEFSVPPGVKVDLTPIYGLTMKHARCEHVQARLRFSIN
# [4] = molecular target: T3, Replicative DNA helicase DnaB (Mycobacterium tuberculosis, UniProt P9WMR3); assay: DnaB intein splicing inhibitors, dose response, biochemical, cell-free fluorescence (AID 449749); assay type: functional
# T3 sequence (P9WMR3 whole entry): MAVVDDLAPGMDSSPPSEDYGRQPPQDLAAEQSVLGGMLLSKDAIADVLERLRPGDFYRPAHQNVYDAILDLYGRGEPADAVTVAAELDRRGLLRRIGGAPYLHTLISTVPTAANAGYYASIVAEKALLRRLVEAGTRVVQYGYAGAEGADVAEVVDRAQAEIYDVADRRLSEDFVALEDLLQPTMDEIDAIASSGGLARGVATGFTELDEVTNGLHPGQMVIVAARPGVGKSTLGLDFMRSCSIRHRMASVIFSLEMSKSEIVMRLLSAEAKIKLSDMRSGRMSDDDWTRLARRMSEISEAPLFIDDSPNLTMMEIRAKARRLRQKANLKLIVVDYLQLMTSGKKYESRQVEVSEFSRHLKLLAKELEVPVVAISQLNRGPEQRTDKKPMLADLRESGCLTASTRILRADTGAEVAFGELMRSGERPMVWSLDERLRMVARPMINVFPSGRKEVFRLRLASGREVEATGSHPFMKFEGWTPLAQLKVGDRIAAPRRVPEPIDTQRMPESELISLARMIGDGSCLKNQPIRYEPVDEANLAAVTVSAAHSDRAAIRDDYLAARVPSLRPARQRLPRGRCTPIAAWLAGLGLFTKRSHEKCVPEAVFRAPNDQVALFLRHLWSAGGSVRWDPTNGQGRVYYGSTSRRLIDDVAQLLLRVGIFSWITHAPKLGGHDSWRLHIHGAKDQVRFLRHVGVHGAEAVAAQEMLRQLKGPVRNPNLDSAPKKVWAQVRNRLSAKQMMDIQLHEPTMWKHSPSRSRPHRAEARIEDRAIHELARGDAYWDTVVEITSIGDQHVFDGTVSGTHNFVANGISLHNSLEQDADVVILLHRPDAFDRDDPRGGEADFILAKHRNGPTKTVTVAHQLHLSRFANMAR
# [5] = molecular target: Neurotensin receptor type 1 (Homo sapiens, UniProt P30989); assay type: functional;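 note: Image-based confirmatory dose-response assay measuring agonist activity at NTR1; NTR1-expressing U2OS osteosarcoma cells imaged for beta-arrestin GFP spot formation; agonist potency where compounds increase beta-arrestin recruitment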
# Sequence of Neurotensin receptor type 1 (P30989 whole entry): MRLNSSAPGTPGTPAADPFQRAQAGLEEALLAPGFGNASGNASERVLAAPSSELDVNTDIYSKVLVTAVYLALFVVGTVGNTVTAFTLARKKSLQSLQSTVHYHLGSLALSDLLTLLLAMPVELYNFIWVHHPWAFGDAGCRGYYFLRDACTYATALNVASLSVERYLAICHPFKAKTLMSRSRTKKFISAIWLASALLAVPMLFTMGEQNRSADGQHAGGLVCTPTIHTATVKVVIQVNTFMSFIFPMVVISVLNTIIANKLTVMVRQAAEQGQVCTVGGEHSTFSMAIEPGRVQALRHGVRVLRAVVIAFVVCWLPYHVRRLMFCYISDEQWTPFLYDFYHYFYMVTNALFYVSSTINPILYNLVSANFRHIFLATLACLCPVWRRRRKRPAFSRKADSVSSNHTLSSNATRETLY
# Protein RecA = molecular target: T4, Protein RecA (Mycobacterium tuberculosis, UniProt P9WHJ3); assay: Fluorescence Cell-Free Homogeneous Dose Retest to Identify Inhibitors of RecA-Intein Splicing Activity. [Related pubchem assays (depositor defined):AID2097, AID2223, AID489010, AID492950]; assay type: functional
# T4 sequence (P9WHJ3 whole entry): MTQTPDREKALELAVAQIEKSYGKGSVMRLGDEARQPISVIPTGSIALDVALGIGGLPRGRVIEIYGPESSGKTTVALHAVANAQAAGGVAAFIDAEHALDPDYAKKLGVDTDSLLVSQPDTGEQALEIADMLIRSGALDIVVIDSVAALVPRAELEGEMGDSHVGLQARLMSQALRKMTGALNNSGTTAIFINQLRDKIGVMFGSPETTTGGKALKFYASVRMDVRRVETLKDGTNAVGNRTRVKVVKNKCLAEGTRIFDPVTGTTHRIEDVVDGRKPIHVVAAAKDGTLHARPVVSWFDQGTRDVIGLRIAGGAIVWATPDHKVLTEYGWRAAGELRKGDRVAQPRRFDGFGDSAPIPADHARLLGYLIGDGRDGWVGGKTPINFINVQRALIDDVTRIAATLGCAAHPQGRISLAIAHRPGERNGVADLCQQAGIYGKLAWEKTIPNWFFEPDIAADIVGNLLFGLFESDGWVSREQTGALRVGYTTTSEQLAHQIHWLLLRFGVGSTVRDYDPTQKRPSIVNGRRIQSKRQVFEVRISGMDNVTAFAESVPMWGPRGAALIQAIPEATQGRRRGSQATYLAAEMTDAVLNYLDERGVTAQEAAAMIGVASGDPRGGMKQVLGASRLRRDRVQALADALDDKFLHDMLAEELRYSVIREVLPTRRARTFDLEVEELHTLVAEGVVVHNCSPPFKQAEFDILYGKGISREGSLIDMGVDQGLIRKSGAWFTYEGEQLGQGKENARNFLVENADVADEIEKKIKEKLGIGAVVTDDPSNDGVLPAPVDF
# [6] = molecular target: Melanin-concentrating hormone receptor 1 (Homo sapiens, UniProt Q99705); assay: Fluorescence-based counterscreen for antagonists of the G-protein coupled receptor 7 (GPR7): cell-based high throughput dose response assay to identify antagonists of the melanin-concentrating hormone receptor 1 (MCHR1).; assay type: functional
# Sequence of Melanin-concentrating hormone receptor 1 (Q99705 whole entry): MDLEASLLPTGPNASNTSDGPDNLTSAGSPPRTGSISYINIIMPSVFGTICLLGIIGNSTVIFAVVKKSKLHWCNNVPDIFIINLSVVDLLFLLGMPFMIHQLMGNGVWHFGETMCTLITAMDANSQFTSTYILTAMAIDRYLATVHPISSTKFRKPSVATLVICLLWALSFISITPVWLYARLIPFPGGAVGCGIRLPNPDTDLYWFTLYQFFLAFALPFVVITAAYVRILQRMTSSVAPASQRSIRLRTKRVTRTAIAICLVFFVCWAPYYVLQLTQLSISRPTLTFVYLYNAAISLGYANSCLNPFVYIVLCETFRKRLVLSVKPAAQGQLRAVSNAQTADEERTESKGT
# [7] = molecular target: Voltage-dependent T-type calcium channel subunit alpha-1H (Homo sapiens, UniProt O95180); assay type: functional;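 note: channel activity triggered by adding a high calcium stimulation buffer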
# [8] = molecular target: T5, Neuropeptides B/W receptor type 1 (Homo sapiens, UniProt P48145); assay: Fluorescence-based dose response cell-based high throughput screening assay to identify antagonists of the G-protein coupled receptor 7 (GPR7). [Related pubchem assays: 1952 (Screening assay (GPR7 antagonists).), 1880 (Summary AID.)]; assay type: functional
# T5 sequence (P48145 whole entry): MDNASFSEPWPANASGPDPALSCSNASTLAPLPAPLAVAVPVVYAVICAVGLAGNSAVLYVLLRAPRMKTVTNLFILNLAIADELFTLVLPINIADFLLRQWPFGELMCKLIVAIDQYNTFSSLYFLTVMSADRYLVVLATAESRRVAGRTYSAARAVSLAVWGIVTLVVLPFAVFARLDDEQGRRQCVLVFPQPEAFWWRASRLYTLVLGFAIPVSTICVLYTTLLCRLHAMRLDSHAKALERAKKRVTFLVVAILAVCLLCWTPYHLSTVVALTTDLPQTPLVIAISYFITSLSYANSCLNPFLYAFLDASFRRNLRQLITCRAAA
# Vero = assay: host cell viability loss, Vero E6 – synthesized analogs, cytotoxicity control for West Nile virus antiviral project, SAR follow-up (AID 2244); assay type: functional; conditions: Chlorocebus sabaeus
# X-box-binding protein 1 = X-box-binding protein 1 (Homo sapiens, UniProt P17861); assay type: functional, Cricetulus griseus;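 note: confirmatory dose-response counter-screen serving a CHOP assay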
# Sequence of X-box-binding protein 1 (P17861 whole entry): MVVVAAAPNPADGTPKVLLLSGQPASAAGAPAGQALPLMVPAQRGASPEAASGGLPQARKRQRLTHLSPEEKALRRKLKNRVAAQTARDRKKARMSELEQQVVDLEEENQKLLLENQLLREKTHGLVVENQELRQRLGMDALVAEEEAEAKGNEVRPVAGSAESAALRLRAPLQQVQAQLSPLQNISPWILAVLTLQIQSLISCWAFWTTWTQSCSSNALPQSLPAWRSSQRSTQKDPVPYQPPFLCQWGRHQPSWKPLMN
# [9] = molecular target: Glyceraldehyde-3-phosphate dehydrogenase (Homo sapiens, UniProt P04406)
# [10] = molecular target: Heat shock cognate 71 kDa protein (Homo sapiens, UniProt P11142); assay: In Vitro Hsc70 Dose Response Fluorescence Polarization Assay. [Related pubchem assays: 1072 ]
# [11] = molecular target: T6, Dual specificity protein phosphatase 6 (Rattus norvegicus, UniProt Q64346)
# T6 sequence (Q64346 whole entry): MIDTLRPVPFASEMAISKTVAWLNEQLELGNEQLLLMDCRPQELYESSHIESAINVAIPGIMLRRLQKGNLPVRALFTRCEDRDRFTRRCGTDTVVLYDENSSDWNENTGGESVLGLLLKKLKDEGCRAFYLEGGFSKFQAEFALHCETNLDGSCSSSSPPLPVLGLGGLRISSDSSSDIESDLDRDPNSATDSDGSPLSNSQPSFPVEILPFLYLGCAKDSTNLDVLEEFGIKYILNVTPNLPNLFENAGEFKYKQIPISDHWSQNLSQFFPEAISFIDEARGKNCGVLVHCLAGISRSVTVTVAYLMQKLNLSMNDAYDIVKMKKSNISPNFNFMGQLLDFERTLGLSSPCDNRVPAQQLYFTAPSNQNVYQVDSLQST
# [12] = molecular target: T6, Dual specificity protein phosphatase 6; assay type: functional
# [13] = molecular target: Heat shock 70 kDa protein 1A (Homo sapiens, UniProt P0DMV8); assay: inhibition of Hsp70 binding activity – biochemical, fluorescence polarization, SAR follow-up (AID 1072)
# Sequence of Heat shock 70 kDa protein 1A (P0DMV8 whole entry): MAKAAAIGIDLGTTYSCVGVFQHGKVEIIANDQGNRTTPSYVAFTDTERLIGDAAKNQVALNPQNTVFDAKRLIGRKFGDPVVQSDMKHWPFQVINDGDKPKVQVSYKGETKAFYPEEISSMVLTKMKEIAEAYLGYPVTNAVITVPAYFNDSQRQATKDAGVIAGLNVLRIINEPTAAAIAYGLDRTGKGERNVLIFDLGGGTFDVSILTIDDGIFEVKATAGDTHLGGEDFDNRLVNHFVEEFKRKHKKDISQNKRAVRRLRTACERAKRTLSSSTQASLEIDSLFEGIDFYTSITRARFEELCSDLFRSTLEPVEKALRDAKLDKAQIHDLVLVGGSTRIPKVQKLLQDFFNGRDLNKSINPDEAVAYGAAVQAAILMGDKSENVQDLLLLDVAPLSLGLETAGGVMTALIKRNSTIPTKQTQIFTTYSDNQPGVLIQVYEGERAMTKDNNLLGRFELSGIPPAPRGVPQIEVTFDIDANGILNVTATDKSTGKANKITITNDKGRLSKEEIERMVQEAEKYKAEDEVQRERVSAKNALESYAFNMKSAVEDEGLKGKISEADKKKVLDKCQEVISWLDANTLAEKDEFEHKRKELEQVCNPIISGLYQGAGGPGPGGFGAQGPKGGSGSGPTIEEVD
# [14] = molecular target: T7, Tyrosine-protein phosphatase non-receptor type 7 (Homo sapiens, UniProt P35236); assay type: functional
# T7 sequence (P35236 whole entry): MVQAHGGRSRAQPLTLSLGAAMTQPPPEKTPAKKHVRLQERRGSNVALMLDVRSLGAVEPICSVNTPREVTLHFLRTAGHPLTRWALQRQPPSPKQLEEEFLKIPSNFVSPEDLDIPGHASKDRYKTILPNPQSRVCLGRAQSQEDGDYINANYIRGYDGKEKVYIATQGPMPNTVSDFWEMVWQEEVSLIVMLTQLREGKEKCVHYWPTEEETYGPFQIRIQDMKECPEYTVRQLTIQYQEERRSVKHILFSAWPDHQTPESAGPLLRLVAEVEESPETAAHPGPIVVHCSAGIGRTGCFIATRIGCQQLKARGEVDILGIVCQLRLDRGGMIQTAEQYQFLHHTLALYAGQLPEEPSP
# [15] = viability loss in THP-1 monocytes – THP-1 cells, cytotoxicity control for Vif-APOBEC3G degradation inhibitor project, dose response (AID 1117359); assay type: functional; conditions: THP-1
# Beta-galactosidase = Beta-galactosidase (Escherichia coli, UniProt Q8VNN2); assay: detection-enzyme interference by beta-gal modulators – biochemical, E. coli enzyme, set 3, artefact control for CCR6 antagonist project, dose response (AID 504712); assay type: functional
# Sequence of Beta-galactosidase (Q8VNN2 whole entry): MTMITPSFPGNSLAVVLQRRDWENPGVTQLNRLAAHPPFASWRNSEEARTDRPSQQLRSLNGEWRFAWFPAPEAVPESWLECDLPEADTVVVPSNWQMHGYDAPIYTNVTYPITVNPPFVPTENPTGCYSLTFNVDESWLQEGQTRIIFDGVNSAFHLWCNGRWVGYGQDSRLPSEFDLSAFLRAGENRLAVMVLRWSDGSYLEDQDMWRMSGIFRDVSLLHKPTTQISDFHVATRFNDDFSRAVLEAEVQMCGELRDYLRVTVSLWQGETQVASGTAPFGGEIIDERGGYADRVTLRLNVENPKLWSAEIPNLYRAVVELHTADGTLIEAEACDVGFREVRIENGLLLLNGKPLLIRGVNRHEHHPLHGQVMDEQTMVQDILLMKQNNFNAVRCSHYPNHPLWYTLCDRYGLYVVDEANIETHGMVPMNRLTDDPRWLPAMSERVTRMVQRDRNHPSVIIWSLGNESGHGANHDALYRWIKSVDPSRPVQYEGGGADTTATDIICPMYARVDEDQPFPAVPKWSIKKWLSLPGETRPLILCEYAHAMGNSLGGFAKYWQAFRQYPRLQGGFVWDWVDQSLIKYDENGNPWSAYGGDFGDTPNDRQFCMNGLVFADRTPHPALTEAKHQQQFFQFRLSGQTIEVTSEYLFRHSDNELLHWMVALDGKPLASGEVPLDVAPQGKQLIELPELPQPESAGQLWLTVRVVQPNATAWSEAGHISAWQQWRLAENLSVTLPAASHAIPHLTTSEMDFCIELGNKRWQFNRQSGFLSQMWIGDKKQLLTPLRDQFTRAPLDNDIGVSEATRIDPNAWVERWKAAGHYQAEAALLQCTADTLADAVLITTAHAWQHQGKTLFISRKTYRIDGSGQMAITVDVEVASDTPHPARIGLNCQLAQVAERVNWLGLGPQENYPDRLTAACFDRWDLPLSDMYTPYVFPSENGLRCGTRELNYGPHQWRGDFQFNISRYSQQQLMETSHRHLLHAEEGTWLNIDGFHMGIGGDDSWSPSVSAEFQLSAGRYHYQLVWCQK
# [16] = molecular target: C-C chemokine receptor type 6 (Homo sapiens, UniProt P51684); assay: antagonism of CCR6 beta-arrestin recruitment – cell-based, luminescent beta-arrestin readout, dose response (AID 504728); assay type: functional
# Sequence of C-C chemokine receptor type 6 (P51684 whole entry): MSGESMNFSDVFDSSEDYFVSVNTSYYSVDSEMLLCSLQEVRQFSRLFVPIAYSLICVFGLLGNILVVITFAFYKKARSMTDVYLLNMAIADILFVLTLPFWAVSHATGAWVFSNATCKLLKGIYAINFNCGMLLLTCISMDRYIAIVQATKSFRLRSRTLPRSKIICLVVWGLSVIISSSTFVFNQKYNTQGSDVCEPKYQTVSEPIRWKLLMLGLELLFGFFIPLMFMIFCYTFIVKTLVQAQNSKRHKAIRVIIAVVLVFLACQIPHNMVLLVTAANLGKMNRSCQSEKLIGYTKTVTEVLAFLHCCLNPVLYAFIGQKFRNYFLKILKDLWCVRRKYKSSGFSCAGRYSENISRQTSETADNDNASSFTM
# Sequence of Cystic fibrosis transmembrane conductance regulator/Golgi-associated PDZ and coiled-coil motif-containing protein (P13569 whole entry, other chains not shown): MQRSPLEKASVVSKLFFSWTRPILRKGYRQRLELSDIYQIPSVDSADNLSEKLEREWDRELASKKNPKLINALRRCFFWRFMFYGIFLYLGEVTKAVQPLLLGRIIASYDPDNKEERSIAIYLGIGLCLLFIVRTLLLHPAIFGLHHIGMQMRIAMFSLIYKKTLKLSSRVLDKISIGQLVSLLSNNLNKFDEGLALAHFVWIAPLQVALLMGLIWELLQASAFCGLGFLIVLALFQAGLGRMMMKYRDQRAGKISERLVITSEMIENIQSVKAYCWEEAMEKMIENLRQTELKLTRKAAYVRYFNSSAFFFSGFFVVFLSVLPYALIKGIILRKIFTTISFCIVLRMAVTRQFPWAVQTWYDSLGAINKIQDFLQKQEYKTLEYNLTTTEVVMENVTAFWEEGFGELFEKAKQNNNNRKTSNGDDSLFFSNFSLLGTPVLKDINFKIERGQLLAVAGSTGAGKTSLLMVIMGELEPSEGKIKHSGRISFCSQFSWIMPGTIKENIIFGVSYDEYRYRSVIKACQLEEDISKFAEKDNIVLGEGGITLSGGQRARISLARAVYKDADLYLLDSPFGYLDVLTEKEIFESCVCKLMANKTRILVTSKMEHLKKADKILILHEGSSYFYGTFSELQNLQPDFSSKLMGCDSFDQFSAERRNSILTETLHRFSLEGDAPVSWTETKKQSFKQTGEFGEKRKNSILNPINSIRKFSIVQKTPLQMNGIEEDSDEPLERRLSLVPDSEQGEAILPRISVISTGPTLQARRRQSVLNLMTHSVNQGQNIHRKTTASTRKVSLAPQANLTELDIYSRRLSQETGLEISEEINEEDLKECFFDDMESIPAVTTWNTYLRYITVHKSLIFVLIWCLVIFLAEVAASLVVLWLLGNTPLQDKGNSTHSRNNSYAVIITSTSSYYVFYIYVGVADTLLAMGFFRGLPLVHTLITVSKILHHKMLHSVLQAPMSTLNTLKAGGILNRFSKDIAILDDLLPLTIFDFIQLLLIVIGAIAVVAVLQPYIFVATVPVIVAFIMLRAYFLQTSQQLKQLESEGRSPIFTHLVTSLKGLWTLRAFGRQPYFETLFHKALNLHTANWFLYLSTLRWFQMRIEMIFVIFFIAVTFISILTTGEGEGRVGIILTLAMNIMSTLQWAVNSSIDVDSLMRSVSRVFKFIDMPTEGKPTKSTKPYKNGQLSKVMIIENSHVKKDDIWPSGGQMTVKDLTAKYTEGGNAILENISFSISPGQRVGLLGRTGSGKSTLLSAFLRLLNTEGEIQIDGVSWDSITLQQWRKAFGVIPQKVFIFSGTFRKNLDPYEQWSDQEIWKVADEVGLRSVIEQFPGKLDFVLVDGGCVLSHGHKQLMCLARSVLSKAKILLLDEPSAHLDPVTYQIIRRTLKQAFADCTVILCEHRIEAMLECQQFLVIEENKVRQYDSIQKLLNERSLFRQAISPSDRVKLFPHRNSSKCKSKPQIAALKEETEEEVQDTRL
smiles,measurement,setting,value
Nc1ncnc2c1C(c1ccccc1)c1c(ccc3ccccc13)O2 (stereo unspecified),AC50,[1],11.2 µM (active)
O=C1NCN(c2ccccc2)C12CCN(C[C@H]1COc3ccccc3O1)CC2,AC50,Cytochrome P450 2C9 [2],15.8 µM (inconclusive)
same,AC50,Cytochrome P450 2C9 [3],31.6 µM (inconclusive)
same,AC50,Cytochrome P450 1A2,20 µM (inconclusive)
CSc1nnc(NC(=O)C23CC4CC(CC(C4)C2)C3)s1,AC50,[4],> 380 µM (inactive)
same,EC50,[5],8.21 µM (active)
same,EC50,Protein RecA,> 380 µM (inactive)
Clc1ccccc1-c1nnn(Cc2ccc(-c3nnn[nH]3)cc2)n1,IC50,[6],> 43.8 µM (not active)
same,EC50,[7],4.37 µM (active)
same,IC50,[8],> 43.8 µM (not active)
O=C(Nc1nc(-c2ccc(Cl)cc2)cs1)c1ccc(Cl)cc1,CC50,Vero,> 40 µM (active)
CNc1nc(Sc2cccc(C(F)(F)F)c2)cc(C(F)(F)F)n1,Absolute IC50 (XBP1),X-box-binding protein 1,10 µM
O=C(Oc1ccc2ccccc2c1)c1ccc2c(c1)C1C=CCC1C(C(=O)O)N2 (stereo unspecified),IC50,[9],76.8 µM (active)
same,IC50,[10],95.2 µM (active)
same,IC50,[11],20.3 µM (active)
same,IC50,[12],24.7 µM (active)
same,IC50,[13],43.9 µM (active)
same,IC50,[14],2.04 µM (active)
CC(=O)OC(C)C1C2=C(C(=O)CC1(C)O)C(=O)c1c(ccc(-c3ccc4c(c3O)C(=O)C3=C(C4=O)C(C(C)OC(C)=O)C(C)(O)CC3=O)c1O)C2=O (stereo unspecified),CC50,[15],19.3 µM (active)
same,IC50,Beta-galactosidase,> 66.6 µM (inactive)
same,IC50,[16],> 66.6 µM (inactive)
